Patent US12018058B2, “Compositions and methods for diagnosing and/or treating kidney injury” (Boston Medical Center Corporation, priority 2018, dated 2024)
Square brackets hold non-standard residues; d marks the D form. Peptide text beside a SMILES is read from it. βAla = NCCC(=O)O

Tests used:
[1] = test system: mitochondrial Bax accumulation; test: NPM and Bax accumulation in mitochondria isolated from PTEC after ischemic stress; format: cell-based; conditions: mitochondria isolated from human PTEC after ischemic stress
Text: NPM is a relevant therapeutic target in human AKI. Primary human proximal tubule epithelial cells (PTEC) derived from cadaveric kidneys were subjected to ischemic stress (transient ATP depletion) in the presence of specific NPM siRNA or non-sense siRNA. […] Thus, manipulating NPM is an effective maneuver. […] Small peptides of 30 amino acids or less are sufficiently specific to minimize off target effects and also reduce the risk of eliciting an antibody response that causes tachyphylaxis. Peptides were commercially synthesized and fused to a nuclear localizing sequence (this NLS has no functional relationship to the “NPM NLS” that regulates NPM translocation). The NLS-CPP markedly increases renal accumulation of small peptides8 as well as in the proximal tubule. […] To determine its effect on NPM-Bax complex formation, active Bax was immunoprecipitated from PTEC rendered ischemic with an antibody directed against the 6A7 epitope. The precipitates were subjected to immunoblot analysis using an anti-NPM antibody. […] NPM and Bax accumulation was measured in mitochondria isolated from human PTEC after ischemic stress. […] This is likely due to the prolonged half-life (about 80 hr) of the peptide in vitro and in vivo due to the presence of an AC modification slows degradation.

[2] = Peptide half-life in vitro and in vivo
[3] = test system: mice subjected to bilateral renal pedicle clamping; test: Ischemic AKI by bilateral renal pedicle clamping (BUN, creatinine, survival); format: in vivo, C57BL/6J mice; conditions: for Renal function (serum BUN): days 1-7 post-ischemia, single i.v. dose 100 μg/g within 3 h after 28 min ischemia, versus control peptide; for Animals surviving severe ischemic AKI: single dose 0-3 hours after releasing clamps; for Animal deaths on day 1 post-AKI / Survival / Total deaths / Animal deaths on day 2 post-AKI / Animal deaths on day 3 post-AKI: n = 8; for Animal deaths on day 1 post-AKI / Animal deaths on day 2 post-AKI / Animal deaths on day 3 post-AKI: 28 min renal ischemia; for Survival: 7 d; for Total deaths: recorded for 7 d
Text: All animals were maintained under the guidance and policies of the Boston University Animal Core facility using National Institutes of Health (NIH) and Institutional Animal Care and Use Committee guidelines. Male and female C57BL/6J mice were purchased from Jackson Laboratory (Bar Harbor, ME), and they were housed and bred at the Boston University Animal Core facility under license number AN-15024. […] Animas were handled in a manner consistent with the NIH guide for their care and use under Institutional Animal Care and Use Committee approval.
Mice were subjected to bilateral renal pedicle clamping after being anesthetized with 2,2,2-tribromoethanol. […] 13,28,29 Slight variation in the clamp time was required to achieve similar degrees of renal dysfunction in the relatively large number of animals studied. The clamp was then removed, and reperfusion was confirmed by visual inspection of the kidneys. Sham ischemia was performed by encircling each renal pedicle with a nonocclusive ligature.
For in vitro testing in primary human PTECs, peptides ([…]) were tested that replicate the Bax domain responsible for binding NPM,34 or two peptides designed to interfere with NPM function were compared with a random nonspecific sequence of the same length (control). Peptides intended to interfere with NPM function overlap key phosphorylation sites located at the NPM amino terminus (peptide 2) or carboxy terminus (peptide 3) detected by mass spectrometry. To improve cell uptake, all peptides contained a cell-penetrating sequence13. For in vivo experiments, a renal-targeting sequence (NLS) was added to enhance renal peptide uptake.35 Peptides were commercially synthesized (Biomatik, Wilmington, DE) J Am Soc Nephrol 30: ccc-ccc, 2018 Nucleophosmin in AKI 3www.jasn.org BASIC RESEARCHas follows: NPM-Bax blocking peptide: Ac-KKKRKV-(bA)-[…]-COOH (SEQ ID NO: 8); peptide 2: AC-PKKKRKV-(bA)-[…]-COOH (SEQ ID NO: 9); and peptide 3: AC-PKKKRKV-(bA)-ESFKK-QEKTPKTPKGPSSVED-IKAK-COOH (SEQ ID NO: 10). […] A total of 42 control and 56 experimental animals were studied.
Transient exposure to metabolic inhibitors replicates ischemia in vivo by activating Bax and causing cell death.13,29,36-38 Cell viability was assayed using a modified colorimetric technique (MTTassay).37 The number of surviving cells is expressed as a percentage of viable control cells detected at baseline. Serum BUN and creatinine levels were measured in tail vein blood samples for 7 days after ischemia using QuantiChrom BUN or creatinine assay kits (BioAssay Systems, Hayward, CA) according to the manufacturer's instructions.

NPM-Bax complex = biological target: T1, NPM-Bax complex (Homo sapiens, UniProt P06748); test: NPM-Bax interaction, active Bax immunoprecipitates from PTEC lysates after ATP depletion; format: cell-based; conditions: for Bax-NPM interaction in renal epithelial cells in vitro: PTEC, 60 min ATP depletion plus 30 min recovery, FIG. 9A
T1 construct: endogenous in cells; host or cells: primary human proximal tubule epithelial cells (PTEC), ATP-depleted
Procedure: Similar amounts of Bax were detected in each lane, and input protein amounts for each sample were identical. IB, immunoblot; IP, immunoprecipitation.
Cell, tissue, and urinary proteins were harvested using PD buffer containing 40 mM Tris-HCl, pH 8.0, 500 mM NaCl, 0.1% Nonidet P-40, 6 mM EGTA, and a protease inhibitor cocktail (Set I; Calbiochem, San Diego, CA). NPM was immunoprecipitated overnight with NPM antibodies (catalog no. B0556; Sigma-Aldrich) in the presence of protein A/G-agarose beads at 4° C. NPM accumulation was measured in cytosolic samples extracted with low-dose digitonin ([…]).13 Cytosolic proteins were extracted from renal cortical tissue samples using an extraction kit (Biochain Institute, Newark, CA). Briefly, 50-100 mg of kidney cortex tissue was minced on ice and spin washed with 1 ml ice-cold wash buffer before adding […] of buffer C. The mixture was rotated at 4° C. for 20 minutes and then centrifuged at 18,0003 g at 4° C. for 20 minutes before being harvested. Protein levels were measured with the bicinchoninic acid assay (Thermo Scientific, Rockford, IL).

[4] = 28 min bilateral pedicle clamping

T1 sequence (P06748 whole entry, one chain of several): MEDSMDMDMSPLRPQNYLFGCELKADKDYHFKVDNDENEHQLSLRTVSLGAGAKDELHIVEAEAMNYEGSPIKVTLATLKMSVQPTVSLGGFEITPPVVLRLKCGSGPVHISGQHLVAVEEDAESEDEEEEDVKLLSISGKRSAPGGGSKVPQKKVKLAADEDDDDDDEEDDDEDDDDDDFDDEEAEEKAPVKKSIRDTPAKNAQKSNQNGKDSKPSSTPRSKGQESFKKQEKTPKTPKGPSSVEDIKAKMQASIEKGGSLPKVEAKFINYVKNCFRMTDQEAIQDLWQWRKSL

CC[C@H](C)[C@H](NC(=O)[C@@H](NC(=O)[C@H](CC(C)C)NC(=O)[C@H](CO)NC(=O)[C@H](C)NC(=O)[C@@H](NC(=O)[C@H](CC(C)C)NC(=O)[C@@H](NC(=O)CNC(=O)[C@H](C)NC(=O)[C@@H](NC(=O)[C@H](Cc1ccccc1)NC(=O)[C@@H](NC(=O)[C@@H](NC(=O)[C@@H](NC(=O)[C@@H](NC(=O)CCNC(=O)[C@@H](NC(=O)[C@H](CCCCN)NC(=O)[C@H](CCCNC(=N)N)NC(=O)[C@H](CCCCN)NC(=O)[C@H](CCCCN)NC(=O)[C@H](CCCCN)NC(C)=O)C(C)C)[C@@H](C)O)C(C)C)[C@@H](C)O)[C@@H](C)CC)C(C)C)C(C)C)[C@@H](C)O)[C@@H](C)O)C(=O)N[C@@H](Cc1c[nH]c2ccccc12)C(=O)N[C@@H](CCCCN)C(=O)N[C@@H](CCCCN)C(=O)N[C@@H](CCSC)C(=O)NCC(=O)O [Peptide #1] (Ac-KKKRKV[βAla]TVTIFVAGVLTASLTIWKKMG-OH)
Mitochondrial Bax and NPM accumulation [1]: decreased mitochondrial Bax accumulation to a greater extent than it reduced NPM accumulation
half-life [2]: ~80 h
Animals surviving ([3]; 22 min bilateral renal ischemia): 98%
Animal survival [3, 4]: all survived
Mean peak BUN [3, 4]: 100 m/dl
Serum creatinine ([3]; day 1, peptide administered 3 hours after ischemia, versus control): significantly reduced
Reduction of serum creatinine ([3]; day 1 post-ischemia, single dose after 28 min ischemia): ~50%
Improvement of BUN ([3]; days 1-6, IV within 3 hr after 22 min bilateral renal ischemia, versus random peptide): 15-35%
Renal function (serum BUN) ([3]; listed as Blocking peptide): significantly improved renal function
Renal function (serum BUN) ([3]; listed as renal targeted peptide designed to interfere with Bax-NPM complex formation): significantly lower BUN levels
Additional protection from higher or repeated dose ([3]; dose above 2 mg/animal (7 μM) or second dose within 24 hr, ischemic PTEC or mice): did not provide additional protection
Protection against lethal renal ischemia (animal survival) ([3]; dose administered at 0, 1, 2 or 3 h post-ischemia, listed as Blocking peptide): significant protection
Protection against lethal renal ischemia (animal survival) ([3]; dose administered at 0, 1, 2 or 3 h post-ischemia, listed as blocking peptide): for 7-d post-pedicle clamp release; no deaths were observed after 3 d. Significant protection
Reduction of AKI severity ([3]; mice, administered before the insult): 40-50%
Improvement of kidney function (reduced both BUN and creatinine) ([3]; mouse, in vivo): 50%
Recovery of renal function ([3]; peptide-treated animals): complete
Time recovery of renal function was sustained ([3]; peptide-treated animals): at least 4 weeks
Protection against lethal renal ischemia (animal survival) ([3]; same dose administered 4, 5, or 6 h after ischemia, listed as Blocking peptide): no protection was observed
Protection against lethal renal ischemia (animal survival) ([3]; same dose administered 4, 5, or 6 h after ischemia, listed as blocking peptide): 3 h post-AKI (P, 0.05); the blocking peptide was not protective if administered at 4, 5, or 6 h
Animals surviving severe ischemic AKI ([3]; 28 min ischemia, listed as Blocking peptide): 88%
Animals surviving severe ischemic AKI ([3]; 28 min ischemia, listed as NPM inhibitor peptide): 75%-88%
Animal deaths on day 1 post-AKI ([3]; single dose 0 h post-AKI): 1
Survival ([3]; single dose 0 h post-AKI): 88%
Total deaths ([3]; single dose 0 h post-AKI): 1
Animal deaths on day 1 post-AKI ([3]; single dose 1 h post-AKI): 1
Animal deaths on day 2 post-AKI ([3]; single dose 1 h post-AKI): 1
Survival ([3]; single dose 1 h post-AKI): 75%
Total deaths ([3]; single dose 1 h post-AKI): 2
Animal deaths on day 2 post-AKI ([3]; single dose 2 h post-AKI): 1
Survival ([3]; single dose 2 h post-AKI): 88%
Total deaths ([3]; single dose 2 h post-AKI): 1
Animal deaths on day 2 post-AKI ([3]; single dose 3 h post-AKI): 1
Survival ([3]; single dose 3 h post-AKI): 88%
Total deaths ([3]; single dose 3 h post-AKI): 1
Animal deaths on day 1 post-AKI ([3]; single dose 4 h post-AKI): 1
Animal deaths on day 2 post-AKI ([3]; single dose 4 h post-AKI): 4
Animal deaths on day 3 post-AKI ([3]; single dose 4 h post-AKI): 3
Survival ([3]; single dose 4 h post-AKI): 0%
Total deaths ([3]; single dose 4 h post-AKI): 8
Animal deaths on day 1 post-AKI ([3]; single dose 5 h post-AKI): 1
Animal deaths on day 2 post-AKI ([3]; single dose 5 h post-AKI): 6
Survival ([3]; single dose 5 h post-AKI): 13%
Total deaths ([3]; single dose 5 h post-AKI): 7
Animal deaths on day 1 post-AKI ([3]; single dose 6 h post-AKI): 1
Animal deaths on day 2 post-AKI ([3]; single dose 6 h post-AKI): 4
Animal deaths on day 3 post-AKI ([3]; single dose 6 h post-AKI): 2
Survival ([3]; single dose 6 h post-AKI): 13%
Total deaths ([3]; single dose 6 h post-AKI): 7
Animal survival ([3]; single dose within 3 hours postischemia, 28 min ischemia, versus control): dramatically improved animal survival
Decrease of NPM-Bax complex formation in vitro (NPM-Bax complex; FIG. 9): about 50%
Bax-NPM interaction in renal epithelial cells in vitro (NPM-Bax complex): markedly decreases
Bax-NPM interaction in renal epithelial cells in vitro (NPM-Bax complex; listed as Blocking peptide): markedly reduced
Bax-NPM interaction in renal epithelial cells in vitro (NPM-Bax complex; listed as NPM-Bax blocking peptide (Peptide #1)): decreases
